ChEMBL document CHEMBL4765420, “Design, synthesis and biological evaluation of novel HDAC inhibitors with improved pharmacokinetic profile in breast cancer” (Eur J Med Chem, 2020)
Calls of active or inactive are those of the source. The rule behind the calls is not given here.

How the values were obtained:
[1] = target: Histone deacetylase 2 (Homo sapiens, UniProt Q92769); assay: Inhibition of human full-length C-terminal FLAG-tagged HDAC2 expressed in baculovirus infected Sf9 insect cells using Ac-Leu-Gly-Lys(Ac)-AMC as substrate measured after 30 mins by fluorescence assay; type: cell-based
[2] = target: Histone deacetylase 3/NCoR1 (Homo sapiens, UniProt O15379); assay: Inhibition of recombinant human GST-fused HDAC3/NCOR1 (397 to 503 residues) expressed in baculovirus infected insect cells using Ac-Leu-Gly-Lys(Ac)-AMC as substrate measured after 30 mins by fluorescence assay
[3] = target: Histone deacetylase 9 (Homo sapiens, UniProt Q9UKV0); assay: Inhibition of recombinant human full-length N-terminal GST-tagged HDAC9 (1 to 1069 residues) expressed in wheat germ expression system using Ac-Leu-Gly-Lys(Tfa)-AMC as substrate measured after 30 mins by fluorescence assay
[4] = target: T1, Polyamine deacetylase HDAC10 (Homo sapiens, UniProt Q969S8); assay: Inhibition of recombinant human C-terminal His-tagged HDAC10 expressed in baculovirus infected Sf9 insect cells using Ac-Arg-His-Lys(Ac)-Lys(Ac)-AMC as substrate measured after 30 mins by fluorescence assay
T1 sequence (Q969S8 whole entry): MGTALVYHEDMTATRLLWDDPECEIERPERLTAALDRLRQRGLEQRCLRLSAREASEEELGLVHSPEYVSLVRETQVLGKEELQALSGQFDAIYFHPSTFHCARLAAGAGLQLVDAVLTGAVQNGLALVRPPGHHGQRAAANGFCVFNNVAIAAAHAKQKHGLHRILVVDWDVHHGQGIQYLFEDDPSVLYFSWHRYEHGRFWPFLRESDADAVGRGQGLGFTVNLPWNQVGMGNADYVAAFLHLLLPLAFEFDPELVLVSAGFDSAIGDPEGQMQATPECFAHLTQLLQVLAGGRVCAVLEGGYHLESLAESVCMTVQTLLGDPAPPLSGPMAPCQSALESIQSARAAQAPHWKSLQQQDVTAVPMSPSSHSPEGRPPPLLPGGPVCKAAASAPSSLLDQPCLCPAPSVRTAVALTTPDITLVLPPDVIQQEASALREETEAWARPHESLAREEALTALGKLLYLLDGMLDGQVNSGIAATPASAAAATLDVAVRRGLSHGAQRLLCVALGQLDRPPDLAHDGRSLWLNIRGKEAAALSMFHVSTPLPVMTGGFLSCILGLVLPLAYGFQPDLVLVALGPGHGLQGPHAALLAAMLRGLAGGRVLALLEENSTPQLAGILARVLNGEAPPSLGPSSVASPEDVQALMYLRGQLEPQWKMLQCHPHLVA

[5] = system: MDA-MB-231; assay: Antiproliferative activity against human MDA-MB-231 cells measured after 96 hrs by MTT assay; type: functional, cell-based; details: MDA-MB-231, 96 h
[6] = target: T2, Protein deacetylase HDAC6 (Homo sapiens) (UniProt Q9UBN7); assay: Inhibition of HDAC6 in human MDA-MB-231 cells assessed as increase in HSP90 acetylation at 2.5 to 10 uM measured after 24 hrs by Western blot analysis; type: cell-based; details: dose 2.5-10 µM
T2 sequence (whole entry): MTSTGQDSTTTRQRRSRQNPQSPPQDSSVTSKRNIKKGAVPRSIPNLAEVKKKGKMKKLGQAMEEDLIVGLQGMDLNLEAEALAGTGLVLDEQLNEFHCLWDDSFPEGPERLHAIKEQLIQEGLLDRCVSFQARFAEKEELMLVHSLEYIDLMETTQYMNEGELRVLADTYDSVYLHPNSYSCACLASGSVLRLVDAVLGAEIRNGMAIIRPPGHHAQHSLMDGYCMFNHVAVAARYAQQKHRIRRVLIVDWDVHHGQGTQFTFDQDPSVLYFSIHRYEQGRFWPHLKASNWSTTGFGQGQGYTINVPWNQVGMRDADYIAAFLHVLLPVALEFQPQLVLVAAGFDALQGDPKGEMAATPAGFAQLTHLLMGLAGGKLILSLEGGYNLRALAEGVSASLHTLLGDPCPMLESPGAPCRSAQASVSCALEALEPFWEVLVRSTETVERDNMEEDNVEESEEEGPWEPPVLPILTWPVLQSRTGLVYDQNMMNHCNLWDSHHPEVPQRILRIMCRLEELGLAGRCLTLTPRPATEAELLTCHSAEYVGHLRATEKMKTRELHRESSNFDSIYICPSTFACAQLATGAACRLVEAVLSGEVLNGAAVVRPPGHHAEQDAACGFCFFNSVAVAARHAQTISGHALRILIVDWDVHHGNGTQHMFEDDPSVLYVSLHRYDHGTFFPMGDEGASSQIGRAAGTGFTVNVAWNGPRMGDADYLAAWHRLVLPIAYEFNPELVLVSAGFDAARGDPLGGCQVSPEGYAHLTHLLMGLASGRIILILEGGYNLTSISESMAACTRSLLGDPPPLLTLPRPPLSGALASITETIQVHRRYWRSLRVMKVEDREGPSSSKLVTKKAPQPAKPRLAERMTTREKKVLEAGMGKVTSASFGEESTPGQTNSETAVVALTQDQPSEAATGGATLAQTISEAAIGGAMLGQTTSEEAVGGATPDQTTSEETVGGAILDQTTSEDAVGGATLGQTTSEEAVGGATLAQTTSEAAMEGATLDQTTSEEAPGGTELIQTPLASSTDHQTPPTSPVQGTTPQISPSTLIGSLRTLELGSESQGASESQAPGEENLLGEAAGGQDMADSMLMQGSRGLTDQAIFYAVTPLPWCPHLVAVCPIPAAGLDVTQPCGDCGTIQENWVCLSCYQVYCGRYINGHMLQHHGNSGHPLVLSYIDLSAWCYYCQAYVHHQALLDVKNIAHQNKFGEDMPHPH

[7] = system: MDA-MB-231; assay: Induction of apoptosis in human MDA-MB-231 cells assessed as increase in DNA fragmentation at 2.5 to 10 uM measured after 24 hrs by Hoechst 33258 staining based immunofluorescence assay; type: functional, cell-based; details: dose 2.5-10 µM
[8] = system: MDA-MB-231; assay: Induction of apoptosis in human MDA-MB-231 cells assessed as early apoptotic cells at 2.5 uM measured after 24 hrs by Annexin-V/propidium iodide staining based flow cytometry (reference value: 0.69 to 0.92%); type: functional
[9] = system: MDA-MB-231; assay: Induction of apoptosis in human MDA-MB-231 cells assessed as necrotic cells at 2.5 uM measured after 24 hrs by Annexin-V/propidium iodide staining based flow cytometry (reference value: 0.22 to 0.46%); type: functional
[10] = system: MDA-MB-231; assay: Induction of apoptosis in human MDA-MB-231 cells assessed as early apoptotic cells at 10 uM measured after 24 hrs by Annexin-V/propidium iodide staining based flow cytometry (reference value: 0.69 to 0.92%); type: functional
[11] = system: MDA-MB-231; assay: Inhibition of cell migration in human MDA-MB-231 cells at 2.5 to 10 uM measured after 24 hrs using crystal violet staining by phase-contrast microscopy based transwell assay; type: functional; details: dose 2.5-10 µM
[12] = system: MDA-MB-231; assay: Induction of autophagy in human MDA-MB-231 cells assessed as increase in LC3II expression at 2.5 to 10 uM measured after 24 hrs by Western blot analysis; type: functional, cell-based; details: dose 2.5-10 µM

Chain of Histone deacetylase 2 (Q92769 whole entry, the tested form may be a part): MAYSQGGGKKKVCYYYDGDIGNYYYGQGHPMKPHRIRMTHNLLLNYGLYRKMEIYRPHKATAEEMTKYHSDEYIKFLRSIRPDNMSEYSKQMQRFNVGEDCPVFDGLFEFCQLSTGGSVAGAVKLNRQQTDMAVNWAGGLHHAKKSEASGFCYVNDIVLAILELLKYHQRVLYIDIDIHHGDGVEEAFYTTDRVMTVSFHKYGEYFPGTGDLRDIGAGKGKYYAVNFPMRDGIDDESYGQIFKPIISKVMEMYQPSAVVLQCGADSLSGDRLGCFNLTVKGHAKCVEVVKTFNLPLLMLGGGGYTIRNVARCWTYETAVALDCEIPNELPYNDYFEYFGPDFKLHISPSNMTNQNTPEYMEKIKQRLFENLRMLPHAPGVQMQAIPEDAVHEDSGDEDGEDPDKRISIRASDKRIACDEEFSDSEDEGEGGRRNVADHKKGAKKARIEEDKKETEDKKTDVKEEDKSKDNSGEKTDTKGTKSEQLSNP
Chain of Histone deacetylase 9 (Q9UKV0 whole entry, the tested form may be a part): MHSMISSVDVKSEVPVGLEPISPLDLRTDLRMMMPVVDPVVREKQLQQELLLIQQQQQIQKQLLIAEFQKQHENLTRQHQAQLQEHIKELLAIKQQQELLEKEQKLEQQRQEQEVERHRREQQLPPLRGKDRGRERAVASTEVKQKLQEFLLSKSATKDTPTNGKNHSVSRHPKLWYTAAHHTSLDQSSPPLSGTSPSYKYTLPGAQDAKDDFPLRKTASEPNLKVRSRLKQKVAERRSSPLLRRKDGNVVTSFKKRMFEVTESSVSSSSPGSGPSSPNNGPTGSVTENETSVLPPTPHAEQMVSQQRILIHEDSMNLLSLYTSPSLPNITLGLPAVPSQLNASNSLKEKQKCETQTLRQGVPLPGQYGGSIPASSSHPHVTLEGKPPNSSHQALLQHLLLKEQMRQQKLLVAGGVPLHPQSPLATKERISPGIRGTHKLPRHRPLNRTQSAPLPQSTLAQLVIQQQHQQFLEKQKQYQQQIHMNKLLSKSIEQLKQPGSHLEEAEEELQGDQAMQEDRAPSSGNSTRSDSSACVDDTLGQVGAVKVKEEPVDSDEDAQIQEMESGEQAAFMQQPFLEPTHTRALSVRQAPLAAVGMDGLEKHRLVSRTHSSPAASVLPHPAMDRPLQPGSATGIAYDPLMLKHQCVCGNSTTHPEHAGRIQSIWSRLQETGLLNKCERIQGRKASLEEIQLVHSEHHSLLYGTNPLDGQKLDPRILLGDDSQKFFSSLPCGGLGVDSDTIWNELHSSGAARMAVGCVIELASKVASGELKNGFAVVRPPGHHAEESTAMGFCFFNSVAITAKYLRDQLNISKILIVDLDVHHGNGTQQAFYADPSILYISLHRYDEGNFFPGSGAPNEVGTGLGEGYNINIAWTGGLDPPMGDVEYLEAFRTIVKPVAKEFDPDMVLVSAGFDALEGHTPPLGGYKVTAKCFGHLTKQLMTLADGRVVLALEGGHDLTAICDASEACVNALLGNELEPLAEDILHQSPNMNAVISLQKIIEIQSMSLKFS
Chain of Histone deacetylase 3/NCoR1 (O15379 whole entry, the tested form may be a part): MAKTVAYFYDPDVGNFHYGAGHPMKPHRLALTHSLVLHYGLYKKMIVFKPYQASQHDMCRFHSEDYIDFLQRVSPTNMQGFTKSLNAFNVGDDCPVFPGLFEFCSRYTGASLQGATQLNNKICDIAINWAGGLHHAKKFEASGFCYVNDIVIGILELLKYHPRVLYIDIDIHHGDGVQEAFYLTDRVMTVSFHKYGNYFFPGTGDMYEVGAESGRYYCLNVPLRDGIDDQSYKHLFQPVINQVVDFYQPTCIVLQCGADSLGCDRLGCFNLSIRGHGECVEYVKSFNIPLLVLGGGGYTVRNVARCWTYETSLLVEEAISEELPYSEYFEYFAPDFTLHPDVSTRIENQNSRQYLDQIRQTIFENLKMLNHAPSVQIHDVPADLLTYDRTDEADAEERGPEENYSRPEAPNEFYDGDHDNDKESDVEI
Chain of Histone deacetylase 3/NCoR1 (O75376 whole entry, further chain, the tested form may be a part): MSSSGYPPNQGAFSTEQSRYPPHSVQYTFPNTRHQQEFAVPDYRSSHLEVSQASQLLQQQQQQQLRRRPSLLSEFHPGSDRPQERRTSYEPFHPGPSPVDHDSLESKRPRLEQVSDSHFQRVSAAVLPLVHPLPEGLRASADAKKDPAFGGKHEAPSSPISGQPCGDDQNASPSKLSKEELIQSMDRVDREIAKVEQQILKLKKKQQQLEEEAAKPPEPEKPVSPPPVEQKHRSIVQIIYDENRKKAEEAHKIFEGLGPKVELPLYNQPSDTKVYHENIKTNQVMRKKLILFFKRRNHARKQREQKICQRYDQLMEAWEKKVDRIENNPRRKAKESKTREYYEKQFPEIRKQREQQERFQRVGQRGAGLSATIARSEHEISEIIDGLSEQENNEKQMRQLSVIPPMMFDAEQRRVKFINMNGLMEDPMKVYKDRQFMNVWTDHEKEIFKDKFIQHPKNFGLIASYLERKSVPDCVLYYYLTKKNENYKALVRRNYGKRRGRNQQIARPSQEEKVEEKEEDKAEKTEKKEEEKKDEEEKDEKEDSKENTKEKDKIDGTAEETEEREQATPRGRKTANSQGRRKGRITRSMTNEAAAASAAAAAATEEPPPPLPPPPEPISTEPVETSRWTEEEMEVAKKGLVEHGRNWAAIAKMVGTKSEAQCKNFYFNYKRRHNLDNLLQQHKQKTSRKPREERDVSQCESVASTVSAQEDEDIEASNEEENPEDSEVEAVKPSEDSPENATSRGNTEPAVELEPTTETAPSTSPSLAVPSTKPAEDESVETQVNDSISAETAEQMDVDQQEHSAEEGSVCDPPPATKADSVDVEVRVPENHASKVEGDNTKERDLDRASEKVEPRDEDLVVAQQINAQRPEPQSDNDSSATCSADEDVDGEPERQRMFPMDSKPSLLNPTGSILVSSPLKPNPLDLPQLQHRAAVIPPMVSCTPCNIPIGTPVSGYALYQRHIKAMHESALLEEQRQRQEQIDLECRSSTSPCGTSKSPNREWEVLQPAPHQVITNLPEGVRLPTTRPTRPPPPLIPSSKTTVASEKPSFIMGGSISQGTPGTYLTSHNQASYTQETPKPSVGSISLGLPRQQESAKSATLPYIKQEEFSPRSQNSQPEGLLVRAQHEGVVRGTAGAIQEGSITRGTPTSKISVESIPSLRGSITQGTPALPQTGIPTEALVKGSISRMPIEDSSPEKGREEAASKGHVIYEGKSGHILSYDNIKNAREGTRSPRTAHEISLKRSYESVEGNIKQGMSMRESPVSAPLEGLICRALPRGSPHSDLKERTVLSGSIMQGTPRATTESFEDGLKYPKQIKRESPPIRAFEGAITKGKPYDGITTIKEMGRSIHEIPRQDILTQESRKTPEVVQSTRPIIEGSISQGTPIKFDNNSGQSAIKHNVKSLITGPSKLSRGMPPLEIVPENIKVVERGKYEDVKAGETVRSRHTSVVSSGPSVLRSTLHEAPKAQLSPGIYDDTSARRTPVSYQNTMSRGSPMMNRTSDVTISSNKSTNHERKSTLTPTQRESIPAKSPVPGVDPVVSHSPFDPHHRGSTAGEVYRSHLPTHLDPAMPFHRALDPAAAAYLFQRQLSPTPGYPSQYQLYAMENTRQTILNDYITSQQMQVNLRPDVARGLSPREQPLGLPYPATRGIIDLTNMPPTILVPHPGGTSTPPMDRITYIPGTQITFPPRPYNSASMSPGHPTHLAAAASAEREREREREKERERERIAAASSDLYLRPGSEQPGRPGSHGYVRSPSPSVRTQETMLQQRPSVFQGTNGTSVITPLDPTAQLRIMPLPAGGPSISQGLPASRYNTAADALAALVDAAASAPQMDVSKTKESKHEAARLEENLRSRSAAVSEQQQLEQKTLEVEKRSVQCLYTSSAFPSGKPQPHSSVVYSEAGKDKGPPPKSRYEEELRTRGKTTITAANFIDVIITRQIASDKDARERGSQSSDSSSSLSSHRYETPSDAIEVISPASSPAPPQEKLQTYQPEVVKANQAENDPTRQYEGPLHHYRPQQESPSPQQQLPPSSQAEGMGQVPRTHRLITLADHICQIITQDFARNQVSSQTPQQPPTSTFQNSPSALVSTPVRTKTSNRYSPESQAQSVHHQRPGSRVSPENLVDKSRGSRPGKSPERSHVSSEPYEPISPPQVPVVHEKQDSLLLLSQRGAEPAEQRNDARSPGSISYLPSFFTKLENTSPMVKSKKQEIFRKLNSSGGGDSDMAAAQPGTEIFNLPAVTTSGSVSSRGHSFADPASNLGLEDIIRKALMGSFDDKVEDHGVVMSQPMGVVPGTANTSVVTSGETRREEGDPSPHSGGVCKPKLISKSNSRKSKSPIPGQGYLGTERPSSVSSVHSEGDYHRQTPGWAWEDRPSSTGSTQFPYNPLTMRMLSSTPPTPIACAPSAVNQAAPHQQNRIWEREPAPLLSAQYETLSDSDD

COc1cc(OC)c2c(N3CCS(=O)(=O)CC3)nc(-c3cc(C)c(OCCCCCC(=O)NO)c(C)c3)nc2c1
IC50 [1]: 136 nM
IC50 [2]: 106 nM
IC50 [3]: > 1000 nM
IC50 [4]: 78.2 nM
IC50 [5]: 1340 nM
inhibition [6]: Active
Activity [7]: Active
Activity [8]: 11.77%
Activity [9]: 1.05%
Activity [10]: 38.66%
inhibition [11]: Active
Activity [12]: Active
